Earlier results as cited in patent publication US9974804B1, “Strontium-based composition, product, and method of using the same to control progression of osteoarthritis osteoporosis and tooth decay” (priority 2017, dated 2018).

How the values were obtained:
[1] = three-year daily use, compared to the control group
[2] = compared to placebo group
[3] = supplemented in the human diet
[4] = osteoporosis; daily doses of 6.4 grams for months to years

## N#Cc1c(N(CC(=O)[O-])CC(=O)[O-])sc(C(=O)[O-])c1CC(=O)[O-].[Sr+2].[Sr+2] [strontium ranelate]
[1]
  reduction in hip fracture: 36%
  reduction in nonvertebral fracture: 19%
  reduction in vertebral fracture: ~49%
[2]
  increase in osteoblast activity parameters: ~10%
  trabecular and cortical bone thickness: 14-18%

## O=C([O-])[O-].[Sr+2] [strontium carbonate]
[3]
  tolerability / toxicity: well tolerated without reported toxicity

## [Sr+2] [strontium]
After strontium supplementation is discontinued
  time after which fifty percent of bone strontium disappears: 10 weeks
Renal tubule excretion
  daily renal clearance relative to that of calcium: about three

## CC(O)C(=O)[O-].CC(O)C(=O)[O-].[Sr+2] (stereo not drawn) [strontium lactate]
[4]
  marked subjective improvement: 84%
